pIC50: −log10 of the molar value.
Experiments:
human DHODH = target: T1, human DHODH (Homo sapiens, UniProt Q02127); experiment: DHODH enzymatic assay - 1 (DCIP bleaching); assay type: biochemical; conditions: 2 nM DHODH, 1 mM dihydroorotate, 0.1 mM decylubiquinone, 0.06 mM DCIP, pH 8.0, 32 degree celsius; read-out: Target IC50
T1 construct: purchased Novus NBP1-98916
Procedure: The assay was conducted in buffer containing 50 mM Tris, 0.1% Triton X-100, 150 mM potassium chloride, 2 nM DHODH, 1 mM dihydroorotate, 0.1 mM decylubiquinone, 0.06 mM DCIP, and 2% DMSO at pH 8.0 at 32 degree celsius. The reaction was initiated by addition of substrates. Enzyme activity was monitored kinetically by the reduction in DCIP absorbance at 600 nm. Purified recombinant human DHODH enzyme was purchased from Novus (cat. no. NBP1-98916). Other chemicals were purchased from Sigma-Aldrich. Absorbance measurements were obtained using a BMG clarion star plate-reading spectrophotometer. Table 1: DHODH enzymatic assay : IC50 values of examples in in vitro assay 1

THP-1 cells = experiment: THP-1 proliferation assay - 1 (AML); assay type: cell-based; conditions: Homo sapiens, 72h incubation, CellTiter-Glo cell viability, read-out: Target IC50
Procedure: In vitro Assay 2: THP-1 proliferation assay - 1 (AML) 2000 cells/well of THP-1 cells were seeded in RPMI 1640 with Glutamax (Gibco, #11875-093) and 10% fetal calf serum (Biochrom, #S0615) in 384-well plates. The next day, cells were incubated with different concentrations of test compounds for 72h. Cellular viability was analyzed using CellTiter-Glo® Luminescent Cell Viability Assay (Promega, #G7570) according to manufacturer's instructions.

T1 sequence (Q02127 whole entry): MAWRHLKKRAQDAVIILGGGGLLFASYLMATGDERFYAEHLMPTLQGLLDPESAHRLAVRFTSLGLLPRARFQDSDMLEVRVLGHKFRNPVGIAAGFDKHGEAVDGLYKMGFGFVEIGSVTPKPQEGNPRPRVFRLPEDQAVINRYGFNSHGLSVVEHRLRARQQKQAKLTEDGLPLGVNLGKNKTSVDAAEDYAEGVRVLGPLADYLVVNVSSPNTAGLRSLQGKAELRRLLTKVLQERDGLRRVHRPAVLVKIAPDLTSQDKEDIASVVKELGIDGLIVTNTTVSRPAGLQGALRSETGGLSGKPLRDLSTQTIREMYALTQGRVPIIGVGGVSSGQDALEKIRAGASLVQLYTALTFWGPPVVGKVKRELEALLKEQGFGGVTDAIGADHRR

With `CCCCOc1cc(-n2nc(-c3ccccc3Cl)[nH]c2=O)c(F)cc1C(=O)Nc1c(F)cccc1Cl` [Compound I, 2-butoxy-N-(2-chloro-6-fluorophenyl)-4-[3-(2-chlorophenyl)-5-oxo-4,5-dihydro-1H-1,2,4-triazol-1-yl]-5-fluorobenzamide] the pIC50 (human DHODH) was 5.52 and the pIC50 (THP-1 cells) was 6.52.
